In patent US20130034497A1, “IODINE-LABELED HOMOGLUTAMIC ACID AND GLUTAMIC ACID DERIVATIVES” (PIRAMAL IMAGING SA, priority 2009, published 2013):

How the values were obtained:
[1] = test system: NCl-H460 cells; assay: tumor cell uptake/binding experiment with I125-labeled derivative; assay type: cell-based, human
Experimental: FIG. 6 The time dependence of uptake of (2S,4S)-2-Amino-4-(4-[I-125]-iodo-benzyl)-pentanedioic acid was determined. H460 cells were incubated with 0.25 MBq (2S,4S)-2-Amino-4-(4-[I-125]-iodo-benzyl)-pentanedioic acid for up to 60 min and the cell-bound fraction was determined after 10, 20, 30 and 60 min).
In a next experiment, NCl-H460 cells were incubated with [I125]-labeled (2S,4S)-2-Amino-4-(3-[4-[I-125]-iodophenoxy]propylypentanedioic acid for up to 30 min and the cell-bound fraction was determined. Approximately 12% of applied activity was bound to the cells after 30 min incubation (FIG. 2).
FIG. 2: E xamination of biological activity of (2S,4S)-2-Amino-4-(3-[4-[I-125]-iodophenoxy]propylypentanedioic acid in a tumor cell uptake/binding experiment. (NCl-H460 cells, up to 30 min incubation with I125-labeled derivative).
Cell uptake & Retention of (2S,4S)-2-Amino-4-(4-[1-125]-iodo-benzyl)-pentanedioic acid—For determination of the biological activity of (2S,4S)-2-Amino-4-(4-[I-125]-iodo-benzyl)-pentanedioic acid, the I-125 labeled compound was used as tracer in a cell uptake experiment using H460 (human NSCLC) cells. Approximately 100.000 cells were incubated with 0.25 MBq (2S,4S)-2-Amino-4-(4-[I-125]-iodo-benzyl)-pentanedioic acid for up to 60 minutes in PBS-buffer containing 0.1% BSA and the cell-bound fraction was determined. […] Approximately 22,3% of applied dose was taken up by the cells during the 60 min incubation period (see FIG. 6).

[2] = test system: NCl-H460 cells; assay: cell competition experiment with I125-labeled derivative as tracer; assay type: cell-based, human
Experimental: To determine the specificity of (2S,4S)-2-Amino-4-(4-hydroxy-3-[1-125]-iodobenzyl)-pentanedioic acid, the compound was used as tracer in a cell competition experiment in H460 tumor cells against an excess of L-Glutamic acid (1 mM).
FIG. 3: Examination of biological activity of (2S,4S)-2-Amino-4-(3-[4-[I-125]-iodophenoxy]propylypentanedioic acid in a cell competition experiment. (NCl-H460 cells, 30 min incubation with I125-labeled derivative in PBS-buffer, concentration of “cold” derivative 1 mM).
FIG. 5: Determination of biological activity of (2S,4S)-2-Amino-4-(4-hydroxy-3-[I-125]-iodobenzyl)-pentanedioic acid in a cell competition experiment. (NCl-H460 cells, 10 min incubation with [I125]-labeled derivative in PBS-buffer, concentration of L-Glutamate 1 mM).

[3] = test system: NCl-H460 (human NSCLC) tumor cells; assay: cell competition experiment with 3H-glutamic acid as tracer, NCl-H460 cells; assay type: cell-based
Experimental: FIG. 9 Examination of biological activity of (S)-2-Amino-5-(4-iodobenzyl)-hexanedioic acid in a cell-competition-experiment (H460 cells, 30 min incubation with 3H-glutamic acid in PBS-Puffer, concentration of competitor 1 mM and 0.1 mM).
The specificity of binding to NCl-H460 (human NSCLC) tumor cells was examined using 3H-Glutamic acid as tracer and (2S,4S)-2-Amino-4-(3-[4-iodophenoxy]propyl)-pentanedioic acid in concentrations ranging from 4 μM to 1 mM.
(§1) The specificity of binding was examined in a cell competition experiment using 3H-glutamic acid as tracer and (2S,4S)-2-Amino-4-(4-iodo-benzyl)-pentanedioic acid in excess (1 mM) to compete for transporter.
FIG. 1: Concentration dependent blocking of 3H-Glutamic acid uptake in H460 cells using different concentrations of (2S,4S)-2-Amino-4-(3-[4-iodophenoxy]propyl)-pentanedioic acid.
(§2) FIG. 4: Examination of biological activity of (2S,4S)-2-Amino-4-(4-iodo-benzyl)-pentanedioic acid in a cell competition experiment. (NCl-H460 cells, A549 cells, 10 min incubation with 1 μCi 3H-Glutamic acid in PBS-buffer, concentration of test compound 1 mM).
The ability of (S)-2-Amino-5-(4-iodobenzyl)-hexanedioic acid to compete with uptake of glutamic acid into tumor cells was examined. Therefore, tumor cells were co-incubated with 3H-labeled glutamic acid and (S)-2-Amino-5-(4-iodobenzyl)-hexanedioic acid. This compounds was used in large excess to the tracer 3H-glutamic acid. Two concentrations were examined (1mM an 0.1 mM).

[4] = test system: H460 tumor cells; assay: retention of activity in tumor cells (efflux); assay type: cell-based, human; settings: H460 cells loaded 30 min; after 30 min in new PBS-buffer (efflux conditions)
Experimental: FIG. 7 Examination of retention of (2S,4S)-2-Amino-4-(4-[I-125]odo-benzyl)-pentanedioic acid in H460 tumor cells. H460 cells were loaded with 0.25 MBq (2S,4S)-2-Amino-4-(4-[I-125]-iodo-benzyl)-pentanedioic acid for 30 min in PBS/BSA. After washing, the cells were incubated with new buffer (without radioactivity) for additional 10, 20, 30 min. The release of radioactivity into the supernatant as well as the retention inside the cells was determined.
In a second experiment, the retention of activity in tumor cells was examined. H460 cells were loaded with 0.25 MBq (2S,4S)-2-Amino-4-(4-[I-125]-iodo-benzyl)-pentanedioic acid for 30 minutes in PBS/BSA-buffer. After this uptake, the buffer was removed and the cells were washed with PBS. The cells were then incubated with new PBS-buffer (without activity) for up to 30 min. The release of activity into the supernatant as well as the retention of activity inside the cells was examined. It was discovered, that more than 75% of activity were retained in the tumor cells after 30 min under these efflux conditions (see FIG. 7).

[5] = test system: H460 tumor bearing mice; assay: Biodistribution in H460 tumor bearing mice; assay type: in vivo, NMRI (nu/nu) mice; settings: for Bilanz/summary Recovery / Bilanz/summary urine: in % (unit assumed)
Experimental: Biodistribution in H460 tumor bearing mice. To test the pharmacokinetic properties of (2S,4S)-2-Amino-4-(4-[I-125]-iodo-benzyl)-pentanedioic acid, the iodinated compound was examined in H460 tumor bearing mice. NMRI (nu/nu) mice were inoculated with H460 tumor cells 8 to 10 days before the biodistribution studies. 185 kBq of activity of the tracer was injected into each mouse. n=3 mice were used at every time point. After injection of the I125-labeled compound, mice were sacrificed at the time points indicated. All organs were removed and radioactivity was determined using a γ-counter. […] Very rapid clearance of radioactivity takes place via the kidneys, with more than 90% of activity being excreted after 30 min p.i.

[6] = test system: NCl-H460 (human NSCLC) tumor bearing nude-mice; assay: SPECT imaging in tumor bearing nude-mice; assay type: in vivo, nude-mice (NMRI nu/nu); settings: approx. 10 MBq; images acquired at 60 min p.i. for 35 min
Experimental: FIG. 8 SPECT imaging with (2S,4S)-2-Amino-4-(4-[I-125]odo-benzyl)-pentanedioic acid after injection into H460 tumor bearing mouse.
SPECT imaging. (2S,4S)-2-Amino-4-(4-[I-125]-iodo-benzyl)-pentanedioic acid was examined in NCl-H460 (human NSCLC) tumor bearing nude-mice (NMRI nu/nu). Approx. 10 MBq of (2S,4S)-2-Amino-4-(4-[I-125]-iodo-benzyl)pentanedioic acid was injected into the mouse. SPECT imaging was performed using a γ-camera (Nucline SPIRIT DH-V). Images were aquired at 60 min p.i. for 35 min with 60 sec/frame.

[7] = test system: A549 (human NSCLC cell line); assay: cell competition experiment with 3H-glutamic acid as tracer, A549 cells; assay type: cell-based; settings: test compound 1 mM, 10 min incubation with 1 μCi 3H-Glutamic acid in PBS-buffer
Experimental: as §1, §2

SMILES: N[C@@H](C[C@H](CCCOc1ccc([125I])cc1)C(=O)O)C(=O)O [(2S,4S)-2-Amino-4-(3-[4-[I-125]-iodophenoxy]propyl)-pentanedioic acid]
- cell-bound fraction ([1]; NCl-H460 cells, after 30 min incubation): Approximately 12 % of applied activity
- binding of I125 tracer with cold derivative in excess ([2]; NCl-H460 cells, 30 min incubation in PBS-buffer, cold derivative 1 mM): a large decrease in binding was observed

SMILES: N[C@@H](C[C@H](CCCOc1ccc(I)cc1)C(=O)O)C(=O)O [(2S,4S)-2-Amino-4-(3-[4-iodophenoxy]propyl)-pentanedioic acid]
- uptake of 3H-glutamic acid (blocking) ([3]; NCl-H460 cells, test compound 4 μM to 1 mM): able to reduce the uptake of glutamic acid in NCl-H460 cells in a concentration dependent manner

SMILES: N[C@@H](C[C@H](Cc1ccc([125I])cc1)C(=O)O)C(=O)O [(2S,4S)-2-Amino-4-(4-[I-125]-iodo-benzyl)-pentanedioic acid]
- uptake by the cells ([1]; H460 cells, 0.25 MBq, 60 min incubation, PBS-buffer containing 0.1% BSA): Approximately 22,3 % of applied dose
- time dependence of uptake ([1]; H460 cells, 0.25 MBq, up to 60 min, PBS-buffer containing 0.1% BSA): A time-dependent uptake was observed
- activity retained in the tumor cells [4]: more than 75 % of activity
- Bilanz/summary carcass ([5]; 0.5 h): 3.4%
- Bilanz/summary organs ([5]; 0.5 h): 10.2%
- blood ([5]; 0.5 h): 0.28 % Dosis/g
- gallbladder ([5]; 0.5 h): 8.09 % Dosis/g
- intestine ([5]; 0.5 h): 1.26 % Dosis/g
- kidney ([5]; 0.5 h): 2.14 % Dosis/g
- liver ([5]; 0.5 h): 0.25 % Dosis/g
- pancreas ([5]; 0.5 h): 0.62 % Dosis/g
- thyroid ([5]; 0.5 h): 0.43 % Dosis/g
- tumor ([5]; 0.5 h): 4.12 % Dosis/g
- Bilanz/summary Recovery ([5]; 0.5 h): 112.7
- Bilanz/summary urine ([5]; 0.5 h): 99.1
- uptake in the tumor ([5]; 30 min p.i., 185 kBq): 4.12 % injected dose per gram of tumor
- Bilanz/summary carcass ([5]; 1 h): 2.2%
- Bilanz/summary faeces ([5]; 1 h): 0.7%
- Bilanz/summary organs ([5]; 1 h): 6.8%
- blood ([5]; 1 h): 0.13 % Dosis/g
- gallbladder ([5]; 1 h): 5.00 % Dosis/g
- intestine ([5]; 1 h): 0.85 % Dosis/g
- kidney ([5]; 1 h): 0.83 % Dosis/g
- liver ([5]; 1 h): 0.07 % Dosis/g
- pancreas ([5]; 1 h): 0.12 % Dosis/g
- thyroid ([5]; 1 h): 0.72 % Dosis/g
- tumor ([5]; 1 h): 3.68 % Dosis/g
- Bilanz/summary Recovery ([5]; 1 h): 109.3
- Bilanz/summary urine ([5]; 1 h): 99.6
- Bilanz/summary carcass ([5]; 2 h): 1.1%
- Bilanz/summary faeces ([5]; 2 h): 2%
- Bilanz/summary organs ([5]; 2 h): 3.8%
- blood ([5]; 2 h): 0.08 % Dosis/g
- gallbladder ([5]; 2 h): 4.73 % Dosis/g
- intestine ([5]; 2 h): 0.78 % Dosis/g
- kidney ([5]; 2 h): 0.24 % Dosis/g
- liver ([5]; 2 h): 0.03 % Dosis/g
- pancreas ([5]; 2 h): 0.06 % Dosis/g
- thyroid ([5]; 2 h): 0.42 % Dosis/g
- tumor ([5]; 2 h): 1.90 % Dosis/g
- Bilanz/summary Recovery ([5]; 2 h): 109.7
- Bilanz/summary urine ([5]; 2 h): 102.8
- Bilanz/summary carcass ([5]; 4 h): 0.5%
- Bilanz/summary faeces ([5]; 4 h): 0.1%
- Bilanz/summary organs ([5]; 4 h): 2.8%
- blood ([5]; 4 h): 0.06 % Dosis/g
- gallbladder ([5]; 4 h): 6.63 % Dosis/g
- intestine ([5]; 4 h): 1.32 % Dosis/g
- kidney ([5]; 4 h): 0.10 % Dosis/g
- liver ([5]; 4 h): 0.03 % Dosis/g
- pancreas ([5]; 4 h): 0.03 % Dosis/g
- thyroid ([5]; 4 h): 1.05 % Dosis/g
- tumor ([5]; 4 h): 1.55 % Dosis/g
- Bilanz/summary Recovery ([5]; 4 h): 115.3
- Bilanz/summary urine ([5]; 4 h): 111.9
- activity excreted via the kidneys ([5]; after 30 min p.i.): more than 90 % of activity
- tumor visibility in SPECT-images [6]: The tumor was very well visible

SMILES: N[C@@H](C[C@H](Cc1ccc(O)c([125I])c1)C(=O)O)C(=O)O [(2S,4S)-2-Amino-4-(4-hydroxy-3-[I-125]-iodobenzyl)-pentanedioic acid]
- uptake of I125 tracer against excess of L-Glutamic acid ([2]; H460 cells, 10 min incubation in PBS-buffer, L-Glutamate 1 mM): the uptake was blockable by excess of glutamic acid

SMILES: N[C@@H](C[C@H](Cc1ccc(I)cc1)C(=O)O)C(=O)O [(2S,4S)-2-Amino-4-(4-iodo-benzyl)-pentanedioic acid]
- uptake of 3H-glutamic acid ([3]; NCl-H460 cells, test compound 1 mM, 10 min incubation with 1 μCi 3H-Glutamic acid in PBS-buffer): able to reduce the uptake of glutamic acid
- uptake of 3H-glutamic acid [7]: able to reduce the uptake of glutamic acid

SMILES: N[C@@H](CCC(Cc1ccc(I)cc1)C(=O)O)C(=O)O (stereo partly drawn) [(S)-2-Amino-5-(4-iodobenzyl)-hexanedioic acid]
- uptake of 3H-glutamic acid ([3]; H460 cells, 30 min incubation, competitor 1 mM and 0.1 mM): strongly reduces the uptake of glutamic acid
